This is an account of results in patent US10611728B2, “Isoindoline compositions and methods for treating neurodegenerative disease” (priority 2014, dated 2020).

The first data set in a line: Microsomal stability in mouse liver microsomes (MLM). To be noted: half-life in mouse liver microsomes. The format is in vitro ADME. The procedure: A first pharmacokinetic study was performed in microsomes of mice mouse liver microsomes, MLM) by a commercial contract research organization. The studies were performed according to Obach, R. S et al. (1997) J. Pharmacol. Exp. Ther., 283: 46-58, which is incorporated herein by reference.
(In general: Liver microsomes are vesicles of endoplasmic reticulum, rich in cytochrome P450 enzymes.)
`COc1cc(CC[C@@H](C)N2Cc3cc4c(cc3C2)OCO4)ccc1O` [compound 6]: the “Mouse liver microsomes, MLM t½” value stood at 20 min. Regarding `COc1cc2c(cc1OC)CN([C@H](C)CCc1ccc(Cl)c(Cl)c1)C2` [compound 11], the “Mouse liver microsomes, MLM t½” value stood at 61 min.

The data set is the same for the next values; noted with them: mouse, microsomes.
`CC(=O)N1CCN(C(=O)c2cccc3c2CN(C(C)(C)CCc2ccc(O)c(OCC(C)C)c2)C3)CC1` [compound 92]: the “Mouse liver microsomes, MLM t½” value was 7 min. Regarding `C[C@H](CCc1ccc(Cl)c(Cl)c1)N1Cc2cc(Cl)c(Cl)cc2C1` [compound 5], the “Mouse liver microsomes, MLM t½” value is 53 min. Take `COc1cc(CC[C@@H](C)N2Cc3cccc(S(C)(=O)=O)c3C2)ccc1O` [compound 65]: the “Mouse liver microsomes, MLM t½” value is 41 min. For the compound `CC(C)Oc1cc(CC[C@@H](C)N2Cc3cccc(F)c3C2)ccc1O` [compound 26], the “Mouse liver microsomes, MLM t½” value turned out to be 4 min.

With `C[C@H](CCc1ccc(O)c(OC(C)(C)C)c1)N1Cc2c(F)ccc(F)c2C1` [60A], the “Mouse liver microsomes, MLM t½” value was found to be 5 min.

Consider `COc1ccc2c(c1)CN([C@H](C)CCc1ccc(Cl)c(Cl)c1)C2.Cl` [compound 15], for which the “Mouse liver microsomes, MLM t½” value is listed as 15 min.

On to `CN1CCN(C(=O)c2cccc3c2CN(C(C)(C)CCc2ccc(O)c(OC(F)(F)F)c2)C3)CC1` [compound 93], for which the “Mouse liver microsomes, MLM t½” value is 5 min.

In the case of `COc1cc2c(cc1OC)CN(C(C)(C)CCc1ccc(F)cc1)C2` [compound 34], the “Mouse liver microsomes, MLM t½” value worked out at 46 min. Turning to `COc1cc(CCC(C)(C)N2Cc3cccc(C(=O)N(C)CCN(C)C)c3C2)ccc1O` [compound 81], the “Mouse liver microsomes, MLM t½” value is recorded as 88 min. For `CC(C)COc1cc(CCC(C)(C)N2Cc3cccc(F)c3C2)ccc1O` [compound 88], the “Mouse liver microsomes, MLM t½” value amounted to 28 min.

Take `CC(C)(C)Oc1cc(CCC(C)(C)N2Cc3ccc(S(C)(=O)=O)cc3C2)ccc1O` [compound 62]: the “Mouse liver microsomes, MLM t½” value is recorded as 45 min. For the compound `COc1cc(CC[C@@H](C)N2Cc3cc(Cl)c(Cl)cc3C2)ccc1O` [compound 3], the “Mouse liver microsomes, MLM t½” value worked out at 21 min. Consider `CC(C)COc1cc(CCC(C)(C)N2Cc3cccc(C(=O)N4CCOCC4)c3C2)ccc1O` [compound 90], for which the “Mouse liver microsomes, MLM t½” value is 9 min.

On to `CC(C)Oc1ccc(CC[C@@H](C)N2Cc3cc4c(cc3C2)OCO4)cc1OC(C)C` [compound 40], for which the “Mouse liver microsomes, MLM t½” value is 6 min. The same measure, in the same setting: with `C[C@H](CCc1ccc(OC(=O)N(C)C)c(OC(F)(F)F)c1)N1Cc2ccc(F)cc2C1` [compound 43] the figure was 5 min. As for `CC(C)(CCc1ccc(O)c(OC(F)(F)F)c1)N1Cc2cccc(C(=O)N3CCOCC3)c2C1` [compound 94], the “Mouse liver microsomes, MLM t½” value is listed as 14 min. As to `CC(C)(C)Oc1cc(CCC(C)(C)N2Cc3c(F)ccc(F)c3C2)ccc1O` [compound 74], the “Mouse liver microsomes, MLM t½” value is recorded as 21 min. In the case of `COc1cc(CCC(C)(C)N2Cc3cc4c(cc3C2)OCO4)ccc1OCCO` [compound 47], the “Mouse liver microsomes, MLM t½” value was determined as 91 min. `C[C@H](CCc1ccc(O)c(OC(F)(F)F)c1)N1Cc2ccc(F)cc2C1` [compound 31]: the “Mouse liver microsomes, MLM t½” value came out at 6 min. For `C[C@H](CCc1ccc(Cl)c(Cl)c1)N1Cc2cc3c(cc2C1)OCO3` [compound 10], the “Mouse liver microsomes, MLM t½” value turned out to be 8 min.

Regarding `CC(C)Oc1cc(CCC(C)(C)N2Cc3ccc(S(C)(=O)=O)cc3C2)ccc1O` [compound 70], the “Mouse liver microsomes, MLM t½” value stood at 79 min. On to `COc1cc(CCC(C)N2Cc3ccc4ccccc4c3C2)ccc1O.Cl` (centres unmarked) [compound 17], for which the “Mouse liver microsomes, MLM t½” value turned out to be 10 min. `CC(C)(C)Oc1cc(CCC(C)(C)N2Cc3cccc(S(C)(=O)=O)c3C2)ccc1O` [compound 66]: the “Mouse liver microsomes, MLM t½” value amounted to 10 min. With `C[C@H](CCc1ccc(Cl)c(Cl)c1)N1Cc2cccc(Cl)c2C1.Cl` [compound 16], the “Mouse liver microsomes, MLM t½” value is given as 12 min. For the compound `COc1cc(CCC(C)(C)N2Cc3ccc(F)cc3C2)ccc1OCCO` [compound 45], the “Mouse liver microsomes, MLM t½” value was 96 min. On to `CC(C)COc1cc(CCC(C)(C)N2Cc3ccc(S(C)(=O)=O)cc3C2)ccc1O` [compound 87], for which the “Mouse liver microsomes, MLM t½” value was determined as 86 min.

As to `C[C@H](CCc1ccc(Cl)c(Cl)c1)N1Cc2cccc(F)c2C1` [compound 9], the “Mouse liver microsomes, MLM t½” value came out at 12 min. With `COc1cc(CCC(C)(C)N2Cc3ccc(F)cc3C2)ccc1OC(=O)N(C)C` [compound 50], the “Mouse liver microsomes, MLM t½” value came out at 33 min.

For `CC(C)COc1cc(CCC(C)(C)N2Cc3cccc(C(=O)N(C)C)c3C2)ccc1O` [compound 89], the “Mouse liver microsomes, MLM t½” value is listed as 17 min.

With `COc1cc(CC[C@@H](C)N2Cc3cccc(F)c3C2)ccc1OCCO` [compound 51], the “Mouse liver microsomes, MLM t½” value turned out to be 66 min. As for `CC(C)(CCc1ccc(F)cc1)N1Cc2cc3c(cc2C1)OCO3` [compound 36], the “Mouse liver microsomes, MLM t½” value worked out at 47 min. With `CC(C)(CCc1ccc(F)cc1)N1Cc2cccc(F)c2C1` [compound 33], the “Mouse liver microsomes, MLM t½” value is reported as 9 min.

With `CN(C)C(=O)c1cccc2c1CN(C(C)(C)CCc1ccc(O)c(OC(C)(C)C)c1)C2` [compound 59], the “Mouse liver microsomes, MLM t½” value is 8 min. The same measure, in the same setting: with `C[C@H](CCc1ccc(Cl)c(Cl)c1)N1Cc2ccc(F)cc2C1.Cl` [compound 12] the figure was 13 min; with `Cc1ccc2c(c1)CN([C@H](C)CCc1ccc(Cl)c(Cl)c1)C2` [compound 13], 3 min; with `C[C@H](CCc1ccc(Cl)c(Cl)c1)N1Cc2ccc(C(F)(F)F)cc2C1` [compound 4], 40 min. In the case of `CC(C)(CCc1ccc(F)cc1)N1Cc2ccc(F)cc2C1` [compound 35], the “Mouse liver microsomes, MLM t½” value is on record as 9 min. Regarding `COc1cc(CCC(C)(C)N2Cc3cccc(S(C)(=O)=O)c3C2)ccc1O` [compound 64], the “Mouse liver microsomes, MLM t½” value is on record as 52 min. As for `COCCN(C)C(=O)c1cccc2c1CN(C(C)(C)CCc1ccc(O)c(OC)c1)C2` [compound 86], the “Mouse liver microsomes, MLM t½” value is given as 19 min. Take `COc1cc(CC[C@@H](C)N2Cc3cccc(F)c3C2)ccc1O` [compound 8]: the “Mouse liver microsomes, MLM t½” value is 16 min. `COc1cc(CCC(C)(C)N2Cc3cccc(F)c3C2)ccc1O` [compound 53]: the “Mouse liver microsomes, MLM t½” value is 21 min.

With `COc1cc(CC[C@@H](C)N2Cc3cc4c(cc3C2)OCO4)ccc1OCCO` [compound 52], the “Mouse liver microsomes, MLM t½” value amounted to 97 min. For the compound `CN(C)C(=O)c1cccc2c1CN(C(C)(C)CCc1ccc(O)c(OC(F)(F)F)c1)C2` [compound 57], the “Mouse liver microsomes, MLM t½” value is listed as 26 min. For the compound `CC(C)Oc1ccc(CCC(C)(C)N2Cc3ccc(F)cc3C2)cc1OC(C)C` [compound 42], the “Mouse liver microsomes, MLM t½” value is reported as 14 min.

`C[C@H](CCc1ccc(O)c(OC(C)(C)C)c1)N1Cc2ccc(S(C)(=O)=O)cc2C1` [compound 63]: the “Mouse liver microsomes, MLM t½” value came out at 31 min.

Consider `COC[C@H](CCc1ccc(Cl)c(Cl)c1)N1Cc2ccc(F)cc2C1` [compound 46], for which the “Mouse liver microsomes, MLM t½” value is 5 min. As to `C[C@H](CCc1ccc(F)cc1)N1Cc2ccc(F)cc2C1` [compound 22], the “Mouse liver microsomes, MLM t½” value came out at 7 min.

For the compound `CC(C)(CCc1ccc(O)c(OC(F)(F)F)c1)N1Cc2cccc(S(C)(=O)=O)c2C1` [compound 67], the “Mouse liver microsomes, MLM t½” value was found to be 39 min.

For `COc1cc2c(cc1OC)CN([C@@H](C)CCc1ccc(Cl)c(Cl)c1)C2` [compound 20], the “Mouse liver microsomes, MLM t½” value is 43 min. On to `COc1cc(CCC(C)(C)N2Cc3cccc(C(=O)NCCN(C)C)c3C2)ccc1O` [compound 78], for which the “Mouse liver microsomes, MLM t½” value is listed as 450 min. Turning to `CC(C)(CCc1ccc(O)c(OC(F)(F)F)c1)N1Cc2c(F)ccc(F)c2C1` [compound 55], the “Mouse liver microsomes, MLM t½” value is listed as 34 min. In the case of `C[C@H](CCc1ccc(Cl)c(Cl)c1)N1Cc2ccc3ccccc3c2C1` [compound 19], the “Mouse liver microsomes, MLM t½” value turned out to be 25 min. For the compound `COc1cc(CCC(C)(C)N2Cc3cccc(C(=O)N4CCN(C)CC4)c3C2)ccc1O` [compound 82], the “Mouse liver microsomes, MLM t½” value is given as 27 min. `COc1cc(CC[C@@H](C)N2Cc3ccc(C(F)(F)F)cc3C2)ccc1O` [compound 2]: the “Mouse liver microsomes, MLM t½” value is 28 min. `C[C@H](CCc1ccc(O)c(OC(C)(C)C)c1)N1Cc2cccc(F)c2C1` [60B]: the “Mouse liver microsomes, MLM t½” value is given as 8 min. Regarding `COc1cc(CCC(C)(C)N2Cc3cccc(F)c3C2)ccc1OCCO` [compound 44], the “Mouse liver microsomes, MLM t½” value was determined as 29 min.

On to `C[C@H](CCc1ccc(O)c(OC(F)(F)F)c1)N1Cc2cc3c(cc2C1)OCO3` [compound 24], for which the “Mouse liver microsomes, MLM t½” value was 5 min.

Regarding `COc1cc(CCC(C)(C)N2Cc3cccc(C(=O)N4CCOCC4)c3C2)ccc1O` [compound 80], the “Mouse liver microsomes, MLM t½” value was found to be 45 min. As to `CC(C)Oc1cc(CC[C@@H](C)N2Cc3ccc(S(C)(=O)=O)cc3C2)ccc1O` [compound 69], the “Mouse liver microsomes, MLM t½” value worked out at 75 min. As to `CC(C)(CCc1ccc(O)c(OC(F)(F)F)c1)N1Cc2cccc(F)c2C1` [compound 54], the “Mouse liver microsomes, MLM t½” value is given as 12 min. Turning to `CC(C)Oc1cc(CCC(C)(C)N2Cc3cccc(F)c3C2)ccc1O` [compound 28], the “Mouse liver microsomes, MLM t½” value amounted to 4 min. Take `COc1cc(CC[C@@H](C)N2Cc3ccc(Cl)cc3C2)ccc1O` [compound 1]: the “Mouse liver microsomes, MLM t½” value is given as 11 min. On the same count and under the same terms, with `C[C@H](CCc1ccc(F)cc1)N1Cc2cccc(F)c2C1` [compound 21] the figure was 7 min. With `CC(C)COc1cc(CCC(C)(C)N2Cc3cccc(C(=O)N4CCN(C)CC4)c3C2)ccc1O` [compound 91], the “Mouse liver microsomes, MLM t½” value was 6 min. For the compound `C[C@H](CCc1ccc(F)cc1)N1Cc2cc3c(cc2C1)OCO3` [compound 23], the “Mouse liver microsomes, MLM t½” value came to 5 min. For `CC(C)Oc1cc(CC[C@@H](C)N2Cc3ccc(F)cc3C2)ccc1O` [compound 37], the “Mouse liver microsomes, MLM t½” value is reported as 5 min.
